# pKd: −log10 of the molar value. Active and inactive are the calls of the source. The rule behind the calls is not given here.
# What was measured:
# 4T1 [1] = experiment: Induction of mouse 4T1 cell maturation assessed as increase in CD86 positive cells by flow cytometric analysis; format: functional, cell-based; settings: dose <= 5.0 µM
# [2] = Cytotoxicity against human MCF-10A assessed as cell growth inhibition incubated for 24 hrs by CCK-8 assay; format: toxicity, cell-based; settings: MCF-10A cells
# Mitochondrial membrane = experiment: Disruption of mitochondrial membrane potential in mouse 4T1 cells assessed as decrease red fluorescence at 0 to 5 uM by JC-1 staining based analysis; settings: dose 0-5 µM
# Mus musculus [3] = experiment: In-vivo activation of cGAS-STING signaling pathway in female BALB/c mouse assessed as effect on cGAS level in tumor at 2.5 mg/kg, sc by Western blot analysis; format: functional, organism-based
# 4T1 [4] = experiment: Activation of cGAS-STING signaling pathway in mouse 4T1 cells assessed as increase in IL-6 level up to 5 uM by ELISA analysis; format: cell-based; settings: filed as activator
# 4T1 [5] = experiment: Induction of ROS generation in mouse 4T1 cells assessed as increase ROS level by DCFH-DA staining based analysis; format: functional, cell-based
# 4T1 [6] = experiment: Induction of mitochondrial damage in mouse 4T1 cells assessed as decrease in ND4 level at 5 uM in presence of DDC by qPCR analysis; format: functional, cell-based
# 4T1 [7] = experiment: Induction of mitochondrial damage in mouse 4T1 cells assessed as dispersion of fluorescence Mitotracker red incubated for 1 hrs and measured after 24 hrs by immunofluorescence analysis; format: functional, cell-based; settings: time 25.0 hrs
# 4T1 [8] = experiment: Antitumor activity against mouse 4T1 cells implanted with female BALB/c mouse assessed as decrease tumor weight at 2.5 mg/kg, sc administered for every 3 days for 2 weeks and measured on day 21; format: functional, organism-based; settings: time 21.0 day
# 4T1 [9] = experiment: Induction of mitochondrial damage in mouse 4T1 cells assessed as increase in ND4 level by qPCR analysis; format: functional, cell-based
# [10] = Toxicity in female BALB/c mouse implanted with mouse 4T1 cells assessed as change in liver weight at 2.5 mg/kg, sc measured after 21 days by Hematoxylin-Eosin staining based analysis; format: organism-based; settings: in vivo, 504 h, time 21 day
# Mus musculus [11] = experiment: Immunostimulatory activity in female BALB/c mouse implanted with mouse 4T1 cells assessed as increase in number of activated CD8+ T cells in spleen 2.5 mg/kg, sc by flow cytometry; format: functional, organism-based
# 4T1 [12] = experiment: Induction of mitochondrial damage in mouse 4T1 cells assessed as disappearance of picogreen incubated for 1 hrs and measured after 24 hrs by immunofluorescence analysis; format: functional, cell-based; settings: time 25.0 hrs
# 4T1 [13] = experiment: Induction of mitochondrial damage in mouse 4T1 cells assessed as increase in Dloop2 level by qPCR analysis; format: functional, cell-based
# 4T1 [14] = experiment: Activation of cGAS-STING signaling pathway in mouse 4T1 cells assessed as increase in IL-6 level at 5 uM by qPCR analysis; format: cell-based; settings: filed as activator
# Quadruplex DNA [15] = experiment: Binding affinity to 5-terminal mt6363 DNA (unknown origin) assessed as dissociation constant by TAMRA-labeled G4 quenching assay; format: nucleic-acid assay
# 4T1 [16] = experiment: Induction of mitochondrial damage in mouse 4T1 cells assessed as decrease in Dloop2 level at 5 uM in presence of DDC by qPCR analysis; format: functional, cell-based
# 4T1 [17] = experiment: Induction of mitochondrial damage in mouse 4T1 cells assessed as decrease in Dloop2 level at 5 uM in presence of NAC by qPCR analysis; format: functional, cell-based
# 4T1 [18] = experiment: Antitumor activity against mouse 4T1 cells implanted with female BALB/c mouse assessed as effect on PARP level in tumor at 2.5 mg/kg, sc measured for 21 days; format: functional, organism-based; settings: time 21.0 day
# 4T1 [19] = experiment: Activation of cGAS-STING pathway in mouse 4T1 cells assessed as increase in cGAS expression level by Western blot analysis; format: cell-based; settings: filed as activator, dose <= 5.0 µM
# Quadruplex DNA [20] = experiment: Binding affinity to G4-quadruplex mt6363 DNA (unknown origin) assessed as melting temperature at 10 uM incubated for 2 hrs by fluorescence based analysis; format: nucleic-acid assay
# 4T1 [21] = experiment: Antitumor activity against mouse 4T1 cells implanted with female BALB/c mouse assessed as suppression in lung metastasis at 2.5 mg/kg, iv administered every 3 days for 2 weeks from day 7; format: functional, organism-based
# 4T1 [22] = experiment: Activation of cGAS-STING signaling pathway in mouse 4T1 cells assessed as […] in TBK1 phosphorylation up to 5 uM by Western blot analysis; format: cell-based; settings: filed as activator
# Mus musculus [23] = experiment: Immunostimulatory activity in female BALB/c mouse implanted with mouse 4T1 cells assessed as upregulation of M1 macrophages level 2.5 mg/kg, sc by flow cytometry analysis; format: functional, organism-based
# Mus musculus [24] = experiment: Immunostimulatory activity in female BALB/c mouse implanted with mouse 4T1 cells assessed as change in CD8+ T cells in spleen at 2.5 mg/kg, sc by flow cytometry; format: functional, organism-based
# [25] = Toxicity in female BALB/c mouse implanted with mouse 4T1 cells assessed as change in heart weight at 2.5 mg/kg, sc measured after 21 days by Hematoxylin-Eosin staining based analysis; format: organism-based; settings: in vivo, 504 h, time 21 day
# 4T1 [26] = experiment: Induction of mitochondrial damage in mouse 4T1 cells assessed as increase in CytB level by qPCR analysis; format: functional, cell-based
# 4T1 [27] = experiment: Activation of cGAS-STING signaling pathway in mouse 4T1 cells assessed as increase in TNF-alpha level up to 5 uM by ELISA analysis; format: cell-based; settings: filed as activator
# 4T1 [28] = experiment: Induction of mouse 4T1 cell maturation assessed as increase in CD80 positive cells by flow cytometric analysis; format: functional, cell-based; settings: dose <= 5.0 µM
# Mus musculus [29] = experiment: In-vivo activation of cGAS-STING signaling pathway in female BALB/c mouse assessed as STING level in tumor at 2.5 mg/kg, sc by Western blot analysis; format: functional, organism-based
# Mus musculus [30] = experiment: In-vivo activation of cGAS-STING signaling pathway in female BALB/c mouse assessed as IRF3 level in tumor at 2.5 mg/kg, sc by Western blot analysis; format: functional, organism-based
# 4T1 [31] = experiment: Induction of mitochondrial damage in mouse 4T1 cells assessed as decrease in CytB level at 5 uM in presence of DDC by qPCR analysis; format: functional, cell-based
smiles,measurement,setting,value
COc1ccc(N(c2ccc(/C=C/C3=[N+](C)c4ccc5ccccc5c4C3(C)C)cc2)c2ccc(OC)cc2)cc1.[I-],Activity,4T1 [1],Dose-dependent-effect
same,IC50 at 24 h,[2],9.6 µM
same,Activity,Mitochondrial membrane,Active
same,Activity,Mus musculus [3],Active
same,Activity,4T1 [4],Active
same,Activity,4T1 [5],Active
same,Activity,4T1 [6],Active
same,Activity,4T1 [7],Active
same,Activity,4T1 [8],Active
same,Activity,4T1 [9],Active
same,Activity,[10],Non-toxic
same,Activity,Mus musculus [11],Active
same,Activity,4T1 [12],Active
same,Activity,4T1 [13],Active
same,Activity,4T1 [14],Active
same,pKd,Quadruplex DNA [15],5.62
same,Activity,4T1 [16],Active
same,Activity,4T1 [17],Active
same,Activity,4T1 [18],Active
same,Activity,4T1 [19],Dose-dependent-effect
same,Tm,Quadruplex DNA [20],46.2 °C
same,Activity,4T1 [21],Active
same,Activity,4T1 [22],Active
same,Activity,Mus musculus [23],Active
same,Activity,Mus musculus [24],Active
same,Activity,[25],Non-toxic
same,Activity,4T1 [26],Active
same,Activity,4T1 [27],Active
same,Activity,4T1 [28],Dose-dependent-effect
same,Activity,Mus musculus [29],Active
same,Activity,Mus musculus [30],Active
same,Activity,4T1 [31],Active
